Patent US20250040545A1, “USE OF SYNERGISTIC COMPOSITIONS BASED ON ZOXAMIDE AND CYFLUFENAMID AS FUNGICIDES IN THE AGRONOMIC FIELD” (Gowan Crop Protection Limited, priority 2023, published 2025)
Several values for one entry are separate records, joined by “and”; a condition that tells them apart may be missing. Equal entries are not always repeated.

Legend:
Format in all cases: cell-based
Details in all cases: single active ingredient
Sclerotinia minor = experiment: In vitro antifungal synergy assay, growth inhibition in 96-well plates (absorbance), Sclerotinia minor
Procedure: (§1) Compositions consisting of the active ingredients Zoxamide (A) and Cyflufenamid (B) in different weight ratios were tested to evaluate their in vitro synergistic antifungal activity against the following phytopathogenic fungi: Botrytis cinerea, Sclerotinia minor and Venturia inaequalis by comparing them with the single active ingredients (A) and (B).
(§2) The strains in pure culture are kept and stored at 4° C. in a refrigerator on potato dextrose agar (PDA) nutrient substrates. The fungal inoculum was prepared (which, depending on the species of the pathogen, could be a suspension of conidia or a mycelial homogenate) for carrying out the synergy assays.
(§3) For the strains not easily sporulating in vitro, i.e. Sclerotinia minor and Venturia inaequalis, six to eight pieces of mycelium, taken from actively growing cultures, are transferred into a grinding egg containing 6 ml of double-concentration potato dextrose broth (PDB). and some metal balls. The suspension is homogenized with a Pulverisette 23 mini-mill (Fritsch GmbH).
(§4) In the compositions tested, the weight ratios of Zoxamide (A) with respect to Cyflufenamid (B) range from 500:1 to 1:100. For both molecules tested, a stock solution in dimethyl sulfoxide (DMSO) at 160,000 mg/l was prepared which was then serially diluted in sterile demineralized water to obtain the solutions to be tested at concentrations double with respect to the final doses. More specifically, the compositions of the two fungicide molecules (A) and (B) were tested following a checkerboard matrix in order to have, in this way, all possible combinations of the two fungicides within the weight ratios described above.
(§5) Synergy assays were performed in 96-well plates: 50 μl of inoculum were mixed with 50 μl of solution of the compositions consisting of the two active molecules (A) and (B) in each well using the Eppendorf Multipette® System E3 serial dispenser.
(§6) Three wells were used as replicates for each concentration/active ingredient composition.
(§7) All pathogen strains were grown in untreated control wells containing 50 μl of fungal suspension and 50 μl of sterile demineralized water. The inoculated multi-well plates are incubated at 22° C. for 72 hours or 96 or 120 depending on the type of pathogen.
(§8) The sensitivity to the molecules was evaluated as growth inhibition of the fungus and measured in terms of absorbance immediately before and after the incubation period.
(§9) The absorbance was measured for each well using the Infinite® F50 Absorbance Reader (Tecan Group Ltd) spectrophotometer at 405 nm (for mycelial inoculums) and at 492 nm (for conidic inoculums).
(§10) For each strain, the percentage of growth inhibition (GIP) caused by each of the active-ingredient concentrations was calculated using the following formula: […]
(§11) wherein At72-120 and At0 are respectively the absorbances of the treated well and of the untreated control measured at the end and at the beginning of the incubation period. GIP data were used for calculating the potential synergistic effect of the compositions tested using the formula proposed by Colby (1967):
(§12) [formula] • wherein: • GIPt=GIP expected of the active molecule A and B tested at dose p for molecule • A and dose q for molecule B: • GIPa=GIP expected from the molecule A tested at dose p; • GIPb=GIP expected from the molecule B tested at dose q.
(§13) The synergistic effect of the two molecules is indicated when the effectiveness of the mixed combination of A+B […], is higher than the expected effectiveness calculated with the Colby equation (GIPa+b/GIPt>1), as described in literature in Colby, S. R. (1967): “Calculating synergistic and antagonistic responses of herbicide combinations”, Weeds, 15 (1), pages 20-22.

Venturia inaequalis = experiment: In vitro antifungal synergy assay, growth inhibition in 96-well plates (absorbance), Venturia inaequalis
Procedure: as §1, §2, §3, §4, §5, §6, §7, §8, §9, §10, §11, §12, §13

Botrytis cinerea = experiment: In vitro antifungal synergy assay, growth inhibition in 96-well plates (absorbance), Botrytis cinerea
Procedure: as §1, §2
For the in vitro sporulating strain, i.e. Botrytis cinerea, the conidic suspension was prepared starting from a culture grown on PDA after 4-5 days of incubation in a thermostat at 24° C. to stimulate its sporulation. The conidia were collected in 1 mL of double-concentration PDB and counted under a microscope with a counting chamber to obtain a final inoculum of 4×10^4 conidia/mL.
as §4, §5, §6, §7, §8, §9, §10, §11, §12, §13

SMILES | Effect A, Effect B (GIP) (Sclerotinia minor; dose 0.1 mg/l) | Effect A, Effect B (GIP) (Sclerotinia minor; dose 1 mg/l) | Effect A, Effect B (GIP) (Sclerotinia minor; dose 5 mg/l) | Effect A, Effect B (GIP) (Sclerotinia minor; dose 10 mg/l) | Effect A, Effect B (GIP) (Venturia inaequalis; dose 0.1 mg/l) | Effect A, Effect B (GIP) (Venturia inaequalis; dose 1 mg/l) | Effect A, Effect B (GIP) (Venturia inaequalis; dose 5 mg/l) | Effect A, Effect B (GIP) (Venturia inaequalis; dose 10 mg/l) | Effect A, Effect B (GIP) (Venturia inaequalis; dose 50 mg/l) | Effect A, Effect B (GIP) (Venturia inaequalis; dose 100 mg/l) | Effect A, Effect B (GIP) (Botrytis cinerea; dose 0.1 mg/l) | Effect A, Effect B (GIP) (Botrytis cinerea; dose 1 mg/l) | Effect A, Effect B (GIP) (Botrytis cinerea; dose 5 mg/l) | Effect A, Effect B (GIP) (Botrytis cinerea; dose 50 mg/l) | Effect A, Effect B (GIP) (Botrytis cinerea; dose 100 mg/l) | Effect A, Effect B (GIP) (Sclerotinia minor; dose 50 mg/l) | Effect A, Effect B (GIP) (Sclerotinia minor; dose 100 mg/l) | Effect A, Effect B (GIP) (Botrytis cinerea; dose 10 mg/l)
O=C(Cc1ccccc1)N/C(=N\OCC1CC1)c1c(C(F)(F)F)ccc(F)c1F [Cyflufenamid] | 3.7% | 10.2% | 17.8% | 23.4% | 1.2% | 5.5% | 10.3% | 12.7% | 15.2% and 12.7% | 18.3% and 18.0% | 1.7% | 4.3% | 10.6% | 49.4% | 60.2% |  |  | 
CCC(C)(NC(=O)c1cc(Cl)c(C)c(Cl)c1)C(=O)CCl (centres unmarked) [Zoxamide] | 2.5% | 29.1% |  | 37.6% |  | 78.0% | 78.8% | 80.0% | 80.1% | 84.5% and 84.0% |  | 5.6% |  | 47.3% | 56.9% | 58.2% | 70.3% | 31.2%
